Experimental data taken from patent US20210002265A1, “PYRAZOLE DERIVATIVES AS INHIBITORS OF THE WNT SIGNALLING PATHWAY” (Université de Lausanne, priority 2018, published 2021).

What was measured:
[1] = tested on: Wnt pathway (Wnt3a-stimulated) in BT-20 cells; experiment: TOPFlash reporter assay, Wnt3a activation; type: cell-based; conditions: for Efficacy (%): average efficacy, BT-20 TOPFlash; for Efficacy (%) / IC50: Wnt3a 250 ng/ml; for IC50: average potency, BT-20 cells stably transfected with TOPFlash reporter
From the text: A commercial (ChemDiv Inc., San Diego, Calif., US) small molecule library (high-diversity GPCR-targeted compound library containing 1000 compounds selected by ChemDiv focusing on maximizing chemical diversity from the 40′000 GPCR-targeted compound library [see http://www.chemdiv.com, particularly http://www.chemdiv.com/gpcr-target-platform-library-2/]) containing 1000 compounds was screened for Wnt pathway inhibitory effect using the TOPflash assay. […] In a first round of screening, 34 randomly chosen compounds resembling compound 1, but presenting some intravariance were tested for their ability to inhibit the Wnt pathway, using the TOPFLash reporter assay.
(§1) For the screens, BT-20 cells, stably transfected with the TOPFlash reporter plasmid were seeded at 15K cells per well in white tissue-culture-treated 96-well plates (Greiner) and incubated overnight. If needed, the cells were additionally transfected with the pRL-CMV plasmid using the X-tremeGENE HP DNA transfection reagent (Roche) according to the manufacturer's protocol and again incubated overnight. […] The medium was then removed and 12 μl 10% sucrose solution was added to the cells to prevent drying. […] Data was analyzed using the Prism 6 Software (GraphPad).

[2] = In vivo pharmacokinetic profiling and tissue analysis; conditions: tumour bearing mice
Description: An in vivo experiment was performed to get a rough ADME profile and a first impression of the tolerability of the compounds and to determine any acute toxicity. […] Blood samples were taken at regular intervals for studying the kinetics.

[3] = microsomal assay
[4] = tested on: Renilla luciferase expressed under control of CMV promoter; conditions: FIG. 2
Description: (§2) Wnt-3a whole pathway activation (circle); LiCl activation of downstream elements only (square); Renilla, control for cell well-being (triangle).
as §1

[5] = tested on: Wnt pathway downstream part activated by LiCl; conditions: LiCl activation, FIG. 2
Description: as §2, §1

[6] = tested on: active β-catenin in HCC 1395 cells; conditions: 50 μM, FIG. 4
Description: (§3) Cells were seeded to 70-80% confluency in 12-well plates and incubated overnight. The medium was then changed for medium containing compound or DMSO and the cells pre-incubated for 1 h. […] After washing the cells with ice cold PBS, the cells were lysed by addition of 70 μl RIPA buffer (50 mM Tris pH 7.4, 1% Triton X-100, 0.1% SDS, 150 mM NaCl, 1 mM EDTA, 1 mM DTT, protease inhibitors (Roche)) containing phosphatase inhibitors if needed (4 mM NaF, 4 mM Imidazole, 2.3 mM Na2MoO4, 4 mM Na3VO4, 8 mM M C4H4Na2O6*2H2O, 2 mM Na4P2O7, 2 mM β-Glycerophosphate) and shaking 10 min on ice. The cell lysate was collected and centrifuged for 15 min at 16000 g at 4° C. to remove cell debris. The samples were equilibrated using the Bradford method and further separated and analyzed by SDS-PAGE and Western blot respectively.

[7] = tested on: cytoplasmic β-catenin in BT-20 cells; conditions: 50 μM, Wnt3a or LiCl, FIG. 3
Description: as §3

[8] = tested on: total β-catenin in L-cells; conditions: 50 μM, FIG. 4
Description: as §3

[9] = tested on: DVL2 and DVL3 in L-cells; conditions: 50 μM, FIG. 5
Description: as §3
(§4) The effects of compound 1 on the upper-level phosphoprotein DVL was examined. The phosphoprotein DVL is phosphorylated on over 40 sites upon Wnt-pathway activation, which can be detected as a shift when analysed by electrophoresis.

[10] = tested on: DVL2 in HCC 1395 cells; conditions: 50 μM, FIG. 5
Description: as §3, §4

[11] = tested on: BT-20; conditions: MTT, BT-20, 72 h
Description: (§5) TNBC cell lines and were seeded at previously determined concentrations in 96-well plates and incubated for 24 h. The next day, the medium was replaced with medium containing either compound or the respective amount of DMSO for the controls. The proliferation was measured after 72 h, by addition of a solution of 1 mg/ml thiazolyl blue (Roth) in PBS, further incubation for 2 h-4 h at 37° C., and lysis of the cells by addition of 50 μl DMSO. The absorbance was read at 570 nm using the Victor3 Multilabel Counter (PerkinElmer).

[12] = tested on: HCC 1395; conditions: MTT, HCC 1395, 72 h
Description: as §5

[13] = tested on: HCC 1806; conditions: MTT, HCC 1806, 72 h
Description: as §5

[14] = tested on: MDA-MB 231; conditions: MTT, MDA-MB 231, 72 h
Description: as §5

[15] = tested on: MDA-MB 468; conditions: MTT, MDA-MB 468, 72 h
Description: as §5

[16] = tested on: TNBC cell lines; conditions: different TNBC cell lines, FIG. 8
Description: TNBC cell lines were seeded at previously determined concentrations in 6-well plates and incubated for 24 h. The cells were then treated with the compounds or DMSO only and the colony formation followed daily by visual inspection. Once the colonies were big enough (70-100 cells), the cells were fixed with a solution of 4% PFA in PBS pH 7.4. The colonies were then stained using a solution of 1% Crystal violet and images taken of the individual wells to count the number of colonies. The colony counting and analysis was done using ImageJ.

Row | SMILES | Efficacy (%) [1] | IC50 [1] | mean concentration achieved in the breast [2] | Tissue concentration, Breast [2] | Tissue concentration, Faeces [2] | Tissue concentration, Intestine [2] | Tissue concentration, Liver [2] | Tissue concentration, Lung [2] | Tissue concentration, Plasma [2] | Tissue concentration, Tumor [2] | Tissue concentration, Urine [2] | CYP stability (% compound after 60 min) [3] | CYP UGT stability (% compound after 60 min) [3] | further results
1 | O=C(Nc1ccccc1)N1CCC(n2nc(-c3ccccc3)cc2-c2ccccc2)CC1 [Compound 26] | 72.7% | 16.5 µM |  |  |  |  |  |  |  |  |  |  |  | 
2 | Cc1ccccc1Cn1cc(-c2ccncc2)cc1C(=O)N1CCN(c2ccccc2)CC1 [Compound 24] | 94.8% | 18.3 µM | around 8 μM | 8.6 µM | 0.1 µM | 0.3 µM | 0.3 µM | 0.3 µM | 0.3 µM | 0.3 µM | 0.1 µM | 67% | 76% | 
3 | O=C(CCc1cn(-c2ccccc2)nc1-c1ccc2c(c1)OCO2)NCCc1ccco1 [Compound 7] | 85.0% | 15.2 µM |  |  |  |  |  |  |  |  |  |  |  | 
4 | Cc1ccc2[nH]cc(CCNC(=O)CCc3cn(-c4ccccc4)nc3-c3ccc4c(c3)OCO4)c2c1 [Compound 1] | 86.3% | 11 µM | around 20 μM | 92.1 µM | 0.1 µM | 44.0 µM | 136.9 µM | 6.2 µM | 3.9 µM | 154.3 µM | 6.6 µM | 33% | 49% | suppression of Wnt3a-stimulated pathway activation ([1]; Wnt-3a whole pathway activation, FIG. 2): efficient in specific suppression of the Wnt3a-stimulated pathway activation; levels of Renilla luciferase (cell well-being control) [4]: not changing the levels of Renilla luciferase; inhibition when downstream part of the pathway is activated by LiCl [5]: do not inhibit; active β-catenin levels [6]: decrease in the active-β catenin levels; accumulation of cytoplasmic β-catenin [7]: essentially recapitulating the results obtained using TopFlash; total β-catenin levels [8]: clear decrease; DVL2 and DVL3 phosphorylation shift upon Wnt3a stimulation [9]: clearly inhibited the shift; DVL2 phosphorylation shift upon Wnt3a stimulation [10]: clearly inhibited the shift; Efficiency (%) [11]: 90%; IC50 [11]: 15 µM; Efficiency (%) [12]: 90%; IC50 [12]: 8 µM; Efficiency (%) [13]: 79%; IC50 [13]: 18 µM; Efficiency (%) [14]: 63%; IC50 [14]: 6 µM; Efficiency (%) [15]: 93%; IC50 [15]: 12 µM; colony formation [16]: inhibition of colony formation
5 | O=C(CCc1cn(-c2ccccc2)nc1-c1ccc2c(c1)OCO2)NCCc1cccs1 [Compound 13] | 77.0% | 6.5 µM |  |  |  |  |  |  |  |  |  |  |  | 
6 | O=C(CCc1cn(-c2ccccc2)nc1-c1ccc2c(c1)OCO2)NCCc1ccccc1 [Compound 11] | 88.4% | 5.2 µM |  |  |  |  |  |  |  |  |  |  |  | 
